For orientation: EC50 means the midpoint of the concentration-response curve.

The values that follow come from US8609699B2, “Oxotetrahydrofuran-2-yl-benzimidazole derivative” (MSD K.K., priority 2008, dated 2013).

Test [1] has as its target T1, recombinant human liver GK (Homo sapiens, UniProt P35557).
T1 construct: made in house; host or cells: E. coli
T1 sequence (P35557 1-466 isoform P35557-2): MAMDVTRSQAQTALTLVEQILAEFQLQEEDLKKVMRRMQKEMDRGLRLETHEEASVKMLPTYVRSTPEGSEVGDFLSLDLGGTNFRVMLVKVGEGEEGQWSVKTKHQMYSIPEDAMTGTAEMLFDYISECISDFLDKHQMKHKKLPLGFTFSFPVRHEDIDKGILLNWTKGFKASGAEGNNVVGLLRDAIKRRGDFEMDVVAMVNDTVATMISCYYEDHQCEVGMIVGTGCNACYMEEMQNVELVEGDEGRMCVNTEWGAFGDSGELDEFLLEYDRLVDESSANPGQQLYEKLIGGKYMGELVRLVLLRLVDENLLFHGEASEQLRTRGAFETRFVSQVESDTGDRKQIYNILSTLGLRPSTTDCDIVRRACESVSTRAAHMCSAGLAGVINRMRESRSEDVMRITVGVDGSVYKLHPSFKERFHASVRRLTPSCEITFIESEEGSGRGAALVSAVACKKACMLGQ
Description: Glucokinase-activating effect (Thio-NADH, G6PDH-coupled assay). Type of test: biochemical. The note with it: final glucose 2.5 mM, 30° C; for Emax(%): OD level of DMSO control = 100%. The source says: The excellent glucokinase-activating effect of the compounds of formula (I) may be determined by a method described in literature (for example, Diabetes, Vol. 45, pp. 1671-1677, 1996), or in accordance with it.
The glucokinase activity may be determined not by directly measuring glucose-6-phosphate but by measuring the level of Thio-NADH, which is produced when a reporter enzyme, glucose-6-phosphate dehydrogenase produces phosphogluconolactone from glucose-6-phosphate, and based on the level, the degree of glucokinase activation by the compound tested may be determined.
In this assay, used was a recombinant human liver GK, which was expressed by E. coli as a FLAG fusion protein therein and was purified by ANTIFLAG M2 AFFINITY GEL (Sigma).
Using a flat-bottomed 96-well plate, the assay was carried out at 30° C. 69 μl of an assay buffer (25 mM Hepes Buffer/pH=7.2, 2 mM MgCl2, 1 mM ATP, 0.5 mM TNAD, 1 mM dithiothreitol) was put into the plate, and 1 μl of a DMSO solution of the compound or DMSO alone as a control was added thereto. Next, 20 μl of an enzyme mixture (FLAG-GK, 20 U/ml G6PDH) cooled in ice was added to it, and 10 μl of a substrate, 25 mM glucose was added to it, and the reaction was initiated (final glucose concentration=2.5 mM).
After the start of the reaction, the increase in the absorbance at 405 nm was measured for 12 minutes at intervals of 30 seconds, and the increase for the first 5 minutes was used for assessing the compound tested. FLAG-GK was added so that the absorbance increase after 5 minutes in the presence of 1% DMSO could be from 0.04 to 0.06.
The OD level of the DMSO control was set as 100%; and the OD level of the test compound at different concentrations was determined. From the OD level at each concentration, Emax (%) and EC50 (μM) were computed and used as the index of the GK-activating potency of the compound.
The GK activating effect of the compounds of the invention was measured according to the method as above, and the results are shown in Table 5 below.

The subject of test [2] is high-fat diet loaded mice. Briefly: Antihyperglycemic effect in high-fat diet loaded mice. Conditions: oral 10 mg/kg in 0.5% methyl cellulose; 1 hour after administration; free-feeding mice. The test is classed as in vivo, C57BL/6J mice. The procedure: Six-week-old male C57BL/6J mice were fed a high-fat diet (RESEARCH DIETS, D12492) for ≧9 weeks to produce the high-fat diet loaded mice (>160 mg/dl).
The slight tail tips of the high-fat diet loaded mice (18-21 weeks old, n=6) under the conditions of free-feeding and water intake were cut with scissors to collect their blood. The collected blood was used to determine blood glucose levels prior to the administration of a compound by a blood glucose level measuring apparatus (One Touch Ultra (Johnson. Johnson)), followed by oral administration of the compound suspended in a 0.5% methyl cellulose solution at 10 mg/kg, while a 0.5% methyl cellulose solution was orally administered to the control group. The blood glucose levels were determined using the blood glucose level measuring apparatus every 1 hour after the administration of the test drug solutions.
The values of the decreases in blood glucose (differences between the control group and the compound-treated group) at 1 hour after administration were shown in Table 7 described below.
The values of the decreases in blood glucose (differences between the control group and the compound-treated group) at 1 hour after administration of the compounds according to Example 1 and Example 7 were shown in Table 7 described below.

Another test concerns male beagles. Description: Antihyperglycemic effect in fasted beagles (plasma glucose AUC). Type of test: in vivo. Conditions: compared to control group up to 4 hours after administration, fasted overnight. The procedure:
From the cephalic vein of male beagles fasted overnight (9.4-14.4 kg body weight), blood was collected prior to administration, followed by oral administration of the test drug suspended in a 0.5% methyl cellulose solution (0.3 and 1 mg/kg), while a 0.5% methyl cellulose solution was orally administered to the control group. The blood was collected at 0.5, 1, 2, and 4 hours after the administration of the test drug. Plasma was separated from the obtained blood to determine a plasma glucose level using Determina-GL-E (Kyowa Medics).

Setting [3] is: racemates, comparison with WO2007/007910.

Structures are written as SMILES.

As for `O=C1CCC(c2cc3[nH]c(-c4ccccn4)nc3cc2Oc2ccc(C(=O)N3CCC3)cc2)O1` (racemic) [Example 1 Racemate, 5-{5-[4-(azetidin-1-ylcarbonyl)phenoxy]-2-pyridin-2-yl-1H-benzimidazol-6-yl}dihydrofuran-2(3H)-one], in test [1] (setting [3]), the EC50 came to 530 nM.

Turning to `CN(C)C(=O)Cc1ccc(Oc2cc3nc(-c4ccccn4)[nH]c3cc2C2CCC(=O)O2)cc1` (racemic) [Example 7 Racemate, N,N-dimethyl-2-(4-{[6-(5-oxotetrahydrofuran-2-yl)-2-pyridin-2-yl-1H-benzimidazol-5-yl]oxy}phenyl)acetamide], in test [1] (setting [3]), the concentration for a half-maximal effect (EC50) is 470 nM.

Regarding `COCc1ccc(Oc2cc3nc(-c4ccccn4)[nH]c3cc2C2CCC(=O)O2)cn1` (racemic) [Example 11 Racemate, 5-(5-{[6-(methoxymethyl)pyridin-3-yl]oxy}-2-pyridin-2-yl-1H-benzimidazol-6-yl)dihydrofuran-2(3H)-one], in test [1] (setting [3]), the concentration giving a half-maximal response (EC50) was 490 nM.

Consider `O=C1CCC(c2cc3[nH]c(-c4ccccn4)nc3cc2Oc2ccc(C(=O)N3CCC3)cc2)O1` (single isomer, unassigned) [Example 1 A, 5-{5-[4-(azetidin-1-ylcarbonyl)phenoxy]-2-pyridin-2-yl-1H-benzimidazol-6-yl}dihydrofuran-2(3H)-one], for which, in test [1] (separated enantiomers, listed as 1 A), the “Emax(%)” value turned out to be 541%. The half-maximal effective concentration (EC50) in test [1] (separated enantiomers) turned out to be 1910 nM.

Take `O=C1CCC(c2cc3[nH]c(-c4ccccn4)nc3cc2Oc2ccc(C(=O)N3CCC3)cc2)O1` (single isomer, unassigned) [Example 1 B, 5-{5-[4-(azetidin-1-ylcarbonyl)phenoxy]-2-pyridin-2-yl-1H-benzimidazol-6-yl}dihydrofuran-2(3H)-one]: in test [1] (separated enantiomers, listed as 1 B), the “Emax(%)” value came out at 588%. Besides, in test [1] (separated enantiomers), the EC50 came to 240 nM. Further, the “Difference from control group (Δmg/dl), decrease in blood glucose” value in test [2] was −132 Δmg/dl. Moreover, the “Rate of decrease (%) in plasma glucose level AUC” value with male beagles (oral 0.3 mg/kg) is on record as 16.2%; in the test with male beagles (oral 1.0 mg/kg) it was 23.4%.

Regarding `O=C1CCC(c2cc3[nH]c(-c4ccccn4)nc3cc2Oc2ccc(C(=O)N3CCC3)nc2)O1` (single isomer, unassigned) [Example 2 A, 5-(5-{[6-(azetidin-1-ylcarbonyl)pyridin-3-yl)oxy}-2-pyridin-2-yl-1H-benzimidazol-6-yl)dihydrofuran-2(3H)-one], the “Emax(%)” value in test [1] (separated enantiomers, listed as 2 A) is on record as 476%. For the same molecule, the half-maximal effective concentration (EC50) in test [1] (separated enantiomers) was 15100 nM.

For `O=C1CCC(c2cc3[nH]c(-c4ccccn4)nc3cc2Oc2ccc(C(=O)N3CCC3)nc2)O1` (single isomer, unassigned) [Example 2 B, 5-(5-{[6-(azetidin-1-ylcarbonyl)pyridin-3-yl)oxy}-2-pyridin-2-yl-1H-benzimidazol-6-yl)dihydrofuran-2(3H)-one], the “Emax(%)” value in test [1] (separated enantiomers, listed as 2 B) came to 704%. In addition, the concentration giving a half-maximal response (EC50) in test [1] (separated enantiomers) came to 310 nM.

Turning to `CN(C)C(=O)c1ccc(Oc2cc3nc(-c4ccccn4)[nH]c3cc2C2CCC(=O)O2)cn1` (single isomer, unassigned) [Example 4 A, N,N-dimethyl-5-{[6-(5-oxotetrahydrofuran-2-yl)-2-pyridin-2-yl-1H-benzimidazol-5-yl]oxy}pyridine-2-carboxamide], the “Emax(%)” value in test [1] (separated enantiomers, listed as 4 A) came out at 432%. For the same molecule, the EC50 in test [1] (separated enantiomers) was found to be 15900 nM.

As for `CN(C)C(=O)c1ccc(Oc2cc3nc(-c4ccccn4)[nH]c3cc2C2CCC(=O)O2)cn1` (single isomer, unassigned) [Example 4 B, N,N-dimethyl-5-{[6-(5-oxotetrahydrofuran-2-yl)-2-pyridin-2-yl-1H-benzimidazol-5-yl]oxy}pyridine-2-carboxamide], in test [1] (separated enantiomers, listed as 4 B), the “Emax(%)” value stood at 668%. Further, the EC50 in test [1] (separated enantiomers) was determined as 280 nM.

On to `CCNC(=O)c1ccc(Oc2cc3nc(-c4ccccn4)[nH]c3cc2C2CCC(=O)O2)cn1` (single isomer, unassigned) [Example 6 A, N-ethyl-5-{[6-(5-oxotetrahydrofuran-2-yl)-2-pyridin-2-yl-1H-benzimidazol-5-yl]oxy}pyridine-2-carboxamide], for which, in test [1] (separated enantiomers, listed as 6 A), the “Emax(%)” value amounted to 553%. The EC50 in test [1] (separated enantiomers) was determined as 1830 nM.

For `CCNC(=O)c1ccc(Oc2cc3nc(-c4ccccn4)[nH]c3cc2C2CCC(=O)O2)cn1` (single isomer, unassigned) [Example 6 B, N-ethyl-5-{[6-(5-oxotetrahydrofuran-2-yl)-2-pyridin-2-yl-1H-benzimidazol-5-yl]oxy}pyridine-2-carboxamide], the “Emax(%)” value in test [1] (separated enantiomers, listed as 6 B) is reported as 781%. Also, in test [1] (separated enantiomers), the half-maximal effective concentration (EC50) worked out at 240 nM.

`CN(C)C(=O)Cc1ccc(Oc2cc3nc(-c4ccccn4)[nH]c3cc2C2CCC(=O)O2)cc1` (single isomer, unassigned) [Example 7 A, N,N-dimethyl-2-(4-{[6-(5-oxotetrahydrofuran-2-yl)-2-pyridin-2-yl-1H-benzimidazol-5-yl]oxy}phenyl)acetamide]: in test [1] (separated enantiomers, listed as 7 A), the “Emax(%)” value is given as 775%. The concentration for a half-maximal effect (EC50) in test [1] (separated enantiomers) turned out to be 2470 nM.

Turning to `COCc1ccc(Oc2cc3nc(-c4ccccn4)[nH]c3cc2C2CCC(=O)O2)cn1` (single isomer, unassigned) [Example 11 A, 5-(5-{[6-(methoxymethyl)pyridin-3-yl]oxy}-2-pyridin-2-yl-1H-benzimidazol-6-yl)dihydrofuran-2(3H)-one], the “Emax(%)” value in test [1] (separated enantiomers, listed as 11 A) was 412%. For the same molecule, in test [1] (separated enantiomers), the EC50 turned out to be 16600 nM.

Consider `COCc1ccc(Oc2cc3nc(-c4ccccn4)[nH]c3cc2C2CCC(=O)O2)cn1` (single isomer, unassigned) [Example 11 B, 5-(5-{[6-(methoxymethyl)pyridin-3-yl]oxy}-2-pyridin-2-yl-1H-benzimidazol-6-yl)dihydrofuran-2(3H)-one], for which the “Emax(%)” value in test [1] (separated enantiomers, listed as 11 B) amounted to 788%. Also, in test [1] (separated enantiomers), the EC50 was 270 nM.
